From ChEMBL document CHEMBL1201862, “PubChem BioAssay data set” (2004)
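Compound exposure: 48 hours, 5 concentrations, 96-well plates. Abbreviation: GI50, concentration required for 50% inhibition of growth.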 Active and inactive are the calls of the source. No stated cut-off is given here; in the data, active = GI50 up to about 1.1 µM and inactive = higher.

How the values were obtained:
Assay in all cases: growth of human tumour cells (NCI), 48 h
CCRF-CEM = test system: CCRF-CEM
OVCAR-5 = test system: OVCAR-5
HCT-15 = test system: HCT-15
SK-MEL-28 = test system: SK-MEL-28
A498 = test system: A498
HOP-18 = test system: HOP-18
NCI-H460 = test system: NCI-H460
SN12C = test system: SN12C
RXF 393 = test system: RXF 393
SF-539 = test system: SF-539
COLO 205 = test system: COLO 205
NCI-H522 = test system: NCI-H522
ACHN = test system: ACHN
KM12 = test system: KM12
Malme-3M = test system: Malme-3M
SR = test system: SR
HT-29 = test system: HT-29
SF-268 = test system: SF-268
UO-31 = test system: UO-31
KM-20L2 = test system: KM-20L2
UACC-257 = test system: UACC-257
EKVX = test system: EKVX
786-0 = test system: 786-0
UACC-62 = test system: UACC-62
SF-295 = test system: SF-295
M19-MEL = test system: M19-MEL
MOLT-4 = test system: MOLT-4
NCI-H23 = test system: NCI-H23
SK-MEL-2 = test system: SK-MEL-2
HL-60 = test system: HL-60
TK-10 = test system: TK-10
OVCAR-8 = test system: OVCAR-8
SNB-19 = test system: SNB-19
HCT-116 = test system: HCT-116
K562 = test system: K562
U-251 = test system: U-251
HCC 2998 = test system: HCC 2998
SK-MEL-5 = test system: SK-MEL-5
SNB-78 = test system: SNB-78
A549 = test system: A549
HOP-92 = test system: HOP-92
DLD-1 = test system: DLD-1
M14 = test system: M14
SW-620 = test system: SW-620
DMS-114 = test system: DMS-114
IGROV-1 = test system: IGROV-1
LXFL 529 = test system: LXFL 529
HOP-62 = test system: HOP-62
Hs-578T = test system: Hs-578T
CAKI-1 = test system: CAKI-1
T47D = test system: T47D
SK-OV-3 = test system: SK-OV-3
SNB-75 = test system: SNB-75
NCI/ADR-RES = test system: NCI/ADR-RES
MDA-N = test system: MDA-N
RPMI-8226 = test system: RPMI-8226
LOX IMVI = test system: LOX IMVI
NCI-H226 = test system: NCI-H226
MCF7 = test system: MCF7
MDA-MB-231 = test system: MDA-MB-231
MDA-MB-435 = test system: MDA-MB-435
DU-145 = test system: DU-145
OVCAR-3 = test system: OVCAR-3
BT-549 = test system: BT-549
XF498 = test system: XF498
OVCAR-4 = test system: OVCAR-4
PC-3 = test system: PC-3

O=C1OC(c2ccccc2)=N/C1=C\c1ccc(Oc2ccc(Cl)c(Cl)c2)cc1
GI50 (CCRF-CEM): 23.1 µM (inactive)
GI50 (OVCAR-5): > 100 µM (inactive)
GI50 (HCT-15): 43.2 µM
GI50 (SK-MEL-28): > 10 µM (inactive)
GI50 (A498): > 100 µM (inactive)
GI50 (HOP-18): > 100 µM (inactive)
GI50 (NCI-H460): 71.4 µM (inactive)
GI50 (SN12C): 51.1 µM (inactive)
GI50 (RXF 393): 25.8 µM (inactive)
GI50 (SF-539): 24.2 µM (inactive)
GI50 (COLO 205): > 100 µM (inactive)
GI50 (NCI-H522): 30.1 µM (inactive)
GI50 (ACHN): 63.1 µM (inactive)
GI50 (KM12): 50 µM (inactive)
GI50 (Malme-3M): 26 µM (inactive)
GI50 (SR): 21.7 µM (inactive)
GI50 (HT-29): 69 µM (inactive)
GI50 (SF-268): 23.1 µM (inactive)
GI50 (UO-31): 21.8 µM (inactive)
GI50 (KM-20L2): 56.6 µM (inactive)
GI50 (UACC-257): > 100 µM (inactive)
GI50 (EKVX): 45.1 µM (inactive)
GI50 (786-0): 29.9 µM (inactive)
GI50 (UACC-62): 26.2 µM (inactive)
GI50 (SF-295): 76.4 µM (inactive)
GI50 (M19-MEL): 36.9 µM (inactive)
GI50 (MOLT-4): 20.7 µM (inactive)
GI50 (NCI-H23): 35.4 µM (inactive)
GI50 (SK-MEL-2): 50.5 µM (inactive)
GI50 (HL-60): 27.9 µM (inactive)
GI50 (TK-10): > 100 µM (inactive)
GI50 (OVCAR-8): 21.2 µM (inactive)
GI50 (SNB-19): 35.5 µM (inactive)
GI50 (HCT-116): 33.2 µM (inactive)
GI50 (K562): 24.4 µM (inactive)
GI50 (U-251): 24.1 µM (inactive)
GI50 (HCC 2998): 50 µM (inactive)
GI50 (SK-MEL-5): 30.1 µM (inactive)
GI50 (SNB-78): 25.9 µM (inactive)
GI50 (A549): 43.1 µM (inactive)
GI50 (HOP-92): 55 µM (inactive)
GI50 (DLD-1): 48.9 µM (inactive)
GI50 (M14): 49.5 µM (inactive)
GI50 (SW-620): 37.7 µM (inactive)
GI50 (DMS-114): 15.4 µM (inactive)
GI50 (IGROV-1): > 100 µM (inactive)
GI50 (LXFL 529): 25.6 µM (inactive)
GI50 (HOP-62): 88.3 µM (inactive)

CC(=O)O[C@H]1C(=O)[C@@]2(C)C([C@H](OC(=O)c3ccccc3)[C@]3(O)C[C@H](OC(=O)[C@H](O)[C@@H](NC(=O)c4ccc(Cl)cc4)c4ccccc4)C(C)=C1C3(C)C)C1(OC(C)=O)CO[C@@H]1C[C@@H]2O (stereo partly specified)
GI50 (Hs-578T): 0.0188 µM (active)
GI50 (CAKI-1): 3.06 µM (inactive)
GI50 (T47D): 0.82 µM (active)
GI50 (CCRF-CEM): < 0.01 µM (active)
GI50 (OVCAR-5): 0.104 µM (active)
GI50 (HCT-15): 1.36 µM
GI50 (SK-MEL-28): 0.114 µM (active)
GI50 (SK-OV-3): 0.0986 µM (active)
GI50 (SNB-75): 0.021 µM (active)
GI50 (A498): 0.322 µM (active)
GI50 (NCI/ADR-RES): 14.9 µM (inactive)
GI50 (MDA-N): 0.00665 µM (active)
GI50 (NCI-H460): 0.0668 µM (active)
GI50 (RPMI-8226): < 0.01 µM (active)
GI50 (LOX IMVI): < 0.01 µM (active)
GI50 (SN12C): 0.182 µM (active)
GI50 (RXF 393): 1.02 µM (active)
GI50 (SF-539): 0.0689 µM (active)
GI50 (COLO 205): 0.0607 µM (active)
GI50 (NCI-H226): 0.173 µM (active)
GI50 (NCI-H522): 0.0775 µM (active)
GI50 (ACHN): 6.47 µM (inactive)
GI50 (KM12): 0.0466 µM (active)
GI50 (MCF7): 0.0181 µM (active)
GI50 (Malme-3M): 0.094 µM (active)
GI50 (MDA-MB-231): 0.265 µM (active)
GI50 (HT-29): 0.03 µM (active)
GI50 (SF-268): 0.156 µM (active)
GI50 (UO-31): 11.1 µM (inactive)
GI50 (KM-20L2): < 0.01 µM (active)
GI50 (UACC-257): 0.109 µM (active)
GI50 (MDA-MB-435): 0.00507 µM (active)
GI50 (EKVX): 9.2 µM (inactive)
GI50 (786-0): 0.123 µM (active)
GI50 (UACC-62): 0.0435 µM (active)
GI50 (SF-295): 0.6 µM (active)
GI50 (M19-MEL): < 0.01 µM (active)
GI50 (MOLT-4): 21.3 µM (inactive)
GI50 (NCI-H23): 0.0738 µM (active)
GI50 (DU-145): 0.0865 µM (active)
GI50 (SK-MEL-2): 0.0274 µM (active)
GI50 (HL-60): 0.0025 µM (active)
GI50 (TK-10): 0.661 µM (active)
GI50 (OVCAR-8): 0.0778 µM (active)
GI50 (OVCAR-3): 0.0346 µM (active)
GI50 (SNB-19): 0.137 µM (active)
GI50 (BT-549): 0.0643 µM (active)
GI50 (HCT-116): 0.0499 µM (active)
GI50 (K562): > 25 µM (inactive)
GI50 (U-251): 0.092 µM (active)
GI50 (HCC 2998): < 0.01 µM (active)
GI50 (SK-MEL-5): < 0.01 µM (active)
GI50 (XF498): 0.0303 µM (active)
GI50 (A549): 0.168 µM (active)
GI50 (DLD-1): 0.0222 µM (active)
GI50 (M14): 0.0889 µM (active)
GI50 (SW-620): 0.0569 µM (active)
GI50 (DMS-114): < 0.01 µM (active)
GI50 (IGROV-1): 0.0946 µM (active)
GI50 (OVCAR-4): 7.21 µM (inactive)
GI50 (LXFL 529): < 0.01 µM (active)
GI50 (HOP-62): 0.474 µM (active)
GI50 (PC-3): 0.0615 µM (active)
